“Also recorded” adds a separate entry of the source. Where two headings read alike, the source gives them in different places.

Assay [1] has as its system human PMN. As to the kind of experiment: PMN phagocytosis of pHrodo-labeled E. coli. Format: cell-based. The conditions noted are these: 10 μg/mL Cytochalasin D, E. coli 20:1, 30 min 37°C.
The test system of a further assay is Fpr1-KO bone marrow PMN. Nature of the assay: fMLF desensitization of migration to KC, Fpr1-KO mouse BM-PMN. Format: cell-based. The conditions noted are these: fMLF 100 nM or 1 μM for 45 min; KC 100 ng/mL; 60 min.
The subject of assay [2] is CXCR2. Nature of the assay: fMLF-induced heterologous desensitization: CXCL1-induced Ca2+ depletion. Format: cell-based, human. The conditions noted are these: pre-treatment with fMLF; 5 nM CXCL1.
A further assay concerns Fpr2-KO bone marrow PMN. Nature of the assay: fMLF desensitization of migration to KC, Fpr2-KO mouse BM-PMN. Format: cell-based. The conditions noted are these: fMLF 100 nM or 1 μM for 45 min; KC 100 ng/mL; 60 min.
Assay [3] has as its system BLT1. Nature of the assay: fMLF-induced heterologous desensitization: LTB4-induced Ca2+ depletion. Format: cell-based, human. The conditions noted are these: fMLF 10 nM or 100 nM; 100 nM LTB4.
Assay [4] relates to wild type bone marrow PMN. As to the kind of experiment: fMLF desensitization of migration to KC, wild type mouse BM-PMN. Format: cell-based. The conditions noted are these: fMLF 100 nM or 1 μM for 45 min; KC 100 ng/mL; 60 min.
Another assay deals with T1, human FPR1 (Homo sapiens, UniProt P21462).
T1 sequence (P21462 1-350): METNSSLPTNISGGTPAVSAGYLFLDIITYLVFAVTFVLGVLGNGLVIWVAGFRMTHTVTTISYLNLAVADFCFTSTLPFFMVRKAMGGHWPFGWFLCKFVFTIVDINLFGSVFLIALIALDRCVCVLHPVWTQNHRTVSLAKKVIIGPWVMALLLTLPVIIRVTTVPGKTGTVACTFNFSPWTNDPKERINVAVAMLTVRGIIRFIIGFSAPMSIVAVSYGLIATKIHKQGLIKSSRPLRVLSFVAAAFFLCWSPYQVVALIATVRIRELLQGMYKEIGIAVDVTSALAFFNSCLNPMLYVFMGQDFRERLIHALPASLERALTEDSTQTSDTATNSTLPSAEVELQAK
To be noted: cited from earlier work.

The subject of assay [5] is human PMN. To be noted: ref [7]; cited from earlier work.
Assay [6] relates to BLT1. As to the kind of experiment: Surface expression of BLT1 by flow cytometry. Format: cell-based, human. To be noted: 100 nM ND6; with or without 1 μM POL7200 pretreatment; 3 separate experiments.
The test system of assay [7] is CXCR2. Nature of the assay: Surface expression of CXCR2 by flow cytometry. Format: cell-based, human. To be noted: 100 nM ND6; with or without 1 μM POL7200 pretreatment.

`C=C1[C@@H](C)[C@H]2[C@H](Cc3ccccc3)NC(=O)[C@]23[C@H](OC(C)=O)/C=C/[C@@](C)(O)C(=O)[C@@H](C)C/C=C/[C@H]3[C@@H]1O` [Cytochalasin D]: the figures for the “effect on phagocytosis, positive control” value in the assay with human PMN [1] and with human PMN [1] (listed as cytochalasin D) were “expected suppression of phagocytosis” and “inhibited PMN phagocytosis”, respectively.

In the case of “N-formyl-methionyl-leucyl phenylalanine [fMLF]”, the “effect of fMLF pre-exposure on migration toward KC, Fpr1-KO” value in the assay with Fpr1-KO bone marrow PMN is reported as “PMN migration to KC persisted; also recorded: protected from chemokine desensitization”. Further, in the assay on CXCR2 [2], the “suppression of CXCL1-induced Ca2+ response by fMLF pre-treatment” value was “strongly inhibits that response; also recorded: significantly reduced calcium depletion”. Moreover, the “effect of fMLF pre-exposure on migration toward KC, Fpr2-KO” value with Fpr2-KO bone marrow PMN was “inhibited migration toward the CXC-chemokine KC; also recorded: desensitized to KC by prior fMLF exposure”. In addition, in the assay on BLT1 [3], the “suppression of LTB4-induced Ca2+ response by fMLF pre-treatment” value was “markedly inhibits Ca^2+ flux response to LTB4; also recorded: significantly reduced calcium depletion”. Moreover, the “effect of fMLF pre-exposure on migration toward KC, wild type” value in [4] is given as “inhibited migration toward the CXC-chemokine KC; also recorded: desensitized to KC by prior fMLF exposure”. Further, the “receptor through which it acts” value on human FPR1 (nanomolar concentrations, ref [17]) is given as “acts exclusively through high-affinity human FPR1 receptors”.

As for fMMYALF [ND6], in the assay with human PMN [5], the “potency as inducer of PMN Ca2+ release/chemotaxis” value is “potent inducer of human PMN Ca^2+ release and chemotaxis; also recorded: even more potent than fMLF; also recorded: most potent human mtFP”. Further, the “effect on BLT1 surface expression” value with BLT1 [6] is “significantly reduces expression of BLT1”. Besides, the “receptor through which it acts” value at human FPR1 (100 nM, ref [7]) was “acts exclusively at FPR1”. Besides, the “effect on CXCR2 surface expression” value in the assay on CXCR2 [7] was “significantly reduces expression of CXCR2; also recorded: internalized and decreased the surface expression of CXCR2 and BLT1”.

Values taken from article PMC7337247 (Critical care medicine, 2020).
